Experimental data reported in the supplement of paper PMC10307832.

Assays:
Assay in all cases: relative viability (nuclei count vs DMSO), 5 days (fraction); higher = more cells survive
MIM1 = compound: CC1=CSC(=NC2CCCCC2)N1/N=C/C3=C(C(=C(C=C3)O)O)O [MIM1]
In short: (§1)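 Nuclei counted with MetaXpress define viability as the ratio of treated to vehicle wells, given as a median across plates. The lung cancer cell lines were in 1536-well plates, pinned with five √10-spaced library-drug doses and imaged at 4× after 5 days and Hoechst staining. Plates passed with control CV below 25% and at least one doubling.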

Luminespib = compound: CCNC(=O)c1noc(-c2cc(C(C)C)c(O)cc2O)c1-c1ccc(CN2CCOCC2)cc1 [Luminespib]
In short: as §1

Lenalidomide = compound: Nc1cccc2c1CN(C1CCC(=O)NC1=O)C2=O [Lenalidomide]
In short: as §1

Nilotinib = compound: Cc1cn(-c2cc(NC(=O)c3ccc(C)c(Nc4nccc(-c5cccnc5)n4)c3)cc(C(F)(F)F)c2)cn1 [Nilotinib]
In short: as §1

Saracatinib = compound: CN1CCN(CCOc2cc(OC3CCOCC3)c3c(Nc4c(Cl)ccc5c4OCO5)ncnc3c2)CC1 [Saracatinib]
In short: as §1

Cell Line | relative viability (MIM1; 0.2 µM) | relative viability (MIM1; 0.6325 µM) | relative viability (MIM1; 2 µM) | relative viability (MIM1; 6.325 µM) | relative viability (MIM1; 20 µM) | relative viability (Luminespib; 0.002 µM) | relative viability (Luminespib; 0.006325 µM) | relative viability (Luminespib; 0.01 µM, anchor plate) | relative viability (Luminespib; 0.02 µM) | relative viability (Luminespib; 0.06325 µM) | relative viability (Luminespib; 0.2 µM) | relative viability (Lenalidomide; 0.253 µM) | relative viability (Lenalidomide; 0.8 µM) | relative viability (Lenalidomide; 2.53 µM) | relative viability (Lenalidomide; 8 µM) | relative viability (Nilotinib; 0.001 µM) | relative viability (Nilotinib; 0.003162 µM) | relative viability (Nilotinib; 0.01 µM) | relative viability (Nilotinib; 0.03162 µM) | relative viability (Nilotinib; 0.1 µM) | relative viability (Saracatinib; 0.02 µM) | relative viability (Saracatinib; 0.2 µM) | relative viability (Saracatinib; 0.6325 µM) | relative viability (Saracatinib; 2 µM)
PC-3 [JPC-3] | 1.05 | 1.04 | 0.988 | 0.874 | 0.439 | 1.01 | 0.915 | 0.669 | 0.982 | 0.961 | 0.281 | 1.03 | 0.899 | 1.13 | 1.08 | 1.03 | 1.07 | 1.11 | 1 | 0.656 | 1.02 | 0.945 | 0.766 | 0.541
NCI-H650 | 1.05 | 0.756 | 0.917 | 0.856 | 0.382 | 0.95 | 0.843 | 0.812 | 0.692 | 0.538 | 0.124 | 1.03 |  | 1.21 | 0.845 | 0.908 | 0.811 | 0.805 | 0.658 | 0.654 | 1.12 | 0.863 | 0.965 | 0.926
NCI-H441 | 1.04 | 0.754 | 0.994 | 0.492 | 0.207 | 0.93 | 1.01 | 0.345 | 0.926 | 0.133 | 0.129 | 0.967 | 0.869 | 1.21 | 0.808 | 0.927 | 1.4 | 1.21 | 0.724 | 0.938 | 0.99 | 0.896 | 1.23 | 0.884
201T | 1 | 1 | 0.987 | 0.555 | 0.483 | 0.973 | 0.896 | 1.06 | 0.88 | 0.969 | 0.295 | 0.985 | 0.835 | 1.01 | 0.96 |  | 1.11 | 0.979 | 1.02 | 0.47 | 0.99 | 0.826 | 0.923 | 0.722
H3255 | 0.952 | 0.882 | 0.891 | 0.724 | 0.35 | 0.969 | 0.808 | 0.933 | 0.702 | 0.834 | 0.346 | 0.983 | 0.969 | 1.05 | 0.882 | 0.937 | 0.971 |  | 0.877 | 0.907 | 1.04 | 0.851 | 0.989 | 0.348
NCI-H1355 | 1 | 0.824 | 1.07 | 0.816 | 0.595 | 0.953 | 0.956 | 0.746 | 0.52 | 0.67 | 0.166 | 1 | 0.746 | 1.02 | 0.721 | 0.96 | 1.21 | 1.13 | 1.01 | 0.428 | 1.02 | 0.972 | 1.03 | 0.975
LU99A | 0.995 | 0.909 | 0.949 | 0.802 | 0.323 | 1.05 | 0.94 | 0.247 | 0.508 | 0.241 | 0.124 | 0.919 | 0.902 | 1.05 | 0.601 | 0.892 | 1.02 | 0.919 | 0.831 | 0.558 | 0.983 | 0.86 | 0.853 | 0.757
IA-LM | 0.976 | 0.935 | 0.896 | 0.345 | 0.157 | 1.06 | 0.884 |  | 0.678 | 0.0695 | 0.0432 | 0.985 | 0.859 | 1.05 | 0.942 | 0.835 | 0.793 | 1.07 | 0.789 | 0.909 | 0.983 | 0.848 | 1.46 | 1
EBC-1 | 1.02 | 0.995 | 0.981 | 0.682 | 0.471 | 0.984 | 0.877 |  | 0.326 | 0.128 | 0.142 | 1.03 | 1.04 | 1.1 | 0.955 | 0.818 | 1.16 | 1.1 | 0.679 | 0.725 | 1.1 | 0.933 | 1.11 | 1.08
HCC-44 | 1.01 | 0.969 | 0.661 | 0.604 | 0.203 | 0.969 | 1.01 | 1.09 | 0.997 | 0.55 | 0.225 | 1.01 | 0.68 | 0.992 | 0.78 | 1 | 0.921 | 0.93 | 0.949 | 0.722 | 1.06 | 0.878 | 1.04 | 1.03
NCI-H460 | 0.988 | 0.994 | 0.827 | 0.45 | 0.124 | 1.02 | 0.952 | 0.0332 | 0.806 | 0.0356 | 0.0297 | 0.984 | 0.956 | 1.04 | 1 | 0.924 | 1.21 | 1.12 | 0.78 | 0.857 | 0.998 | 0.82 | 0.976 | 0.877
ABC-1 | 0.902 | 1.15 | 0.9 | 0.485 | 0.264 | 0.993 | 0.865 | 0.718 | 0.63 | 0.239 | 0.2 | 1.01 | 0.774 | 0.993 | 0.825 | 1 | 0.907 | 1.05 | 0.78 | 0.322 | 0.942 | 0.811 | 1 | 0.899
CAL-12T | 1.05 | 0.819 | 0.92 | 0.708 | 0.434 | 1.03 | 0.933 | 0.47 | 0.591 | 0.136 | 0.13 | 0.979 | 1.04 | 1.27 | 1.16 | 0.928 | 0.91 |  | 0.688 | 0.654 | 1.06 | 0.996 | 1.14 | 0.903
NCI-H1666 | 1.03 | 0.966 | 0.945 | 0.802 | 0.564 | 1.05 | 0.937 | 1.03 | 1.01 | 0.956 | 0.838 | 1.02 | 0.745 | 1.1 | 1.05 | 0.934 | 0.989 | 1.06 | 0.918 | 1.01 | 1.02 | 0.942 | 1.27 | 1.17
